The values that follow are results of earlier work, collected in patent publication US20070043054A1, “Enzyme cofactor combination for supplementing pyruvate dehydrogenase and alpha ketogluterate dehydrogenase complexes” (priority 2004, published 2007).

SMILES strings stand for the structures.

For data set [1] the following is noted: for stability in aqueous solution: neutral or alkaline solutions.

With `NC(=O)c1cccnc1` [Niacinamide], the solubility in water result is “soluble in water and ethanol”. Further, the “stability in aqueous solution” value in data set [1] is recorded as “stable for a short period when autoclaved”.
Regarding `Cc1cc2nc3c(=O)[nH]c(=O)nc-3n(C[C@H](O)[C@H](O)[C@H](O)CO)c2cc1C` [Riboflavin], the solubility in water result is on record as “very slightly soluble in water”. Besides, the solubility in alkali entry (alkali) is “soluble in alkali”. Further, the “solubility in organic solvents” value (organic solvents) is recorded as “insoluble in most organic solvents”. Besides, in data set [1], the “stability in aqueous solution” value was “stable to oxidizing agents in strong mineral acids and in neutral aqueous solution”; the “stability to dry heat” value was “stable to dry heat”.
As for `Cc1ncc(C[n+]2csc(CCO)c2C)c(N)n1` [Thiamine], the solubility in water entry is reported as “water-soluble”. For the same molecule, in data set [1], the “stability in aqueous solution” value is “rapidly broken down in neutral or alkaline solutions” and the “stability to dry heat” value is listed as “comparatively stable to dry heat”.
For `O=C(O)c1cccnc1` [niacin], the “temperature up to which the dry form is stable” value in data set [1] (dry form) was “about 60 °C”.
